The results in this text go back to PubChem BioAssay (NCI).

Among the test systems are MALME-3M melanoma; 786-0 renal; NCI-H23 lung; SNB-19 CNS; OVCAR-4 ovarian; UACC-62 melanoma; TK-10 renal; SF-268 CNS; DU-145 prostate; T-47D breast.
What all share (test): NCI-60 cell line screen, 48 h

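Interpolation was linear, between the two tested concentrations surrounding the appropriate level; five concentrations were tested over 48 hours in 96-well plates. At the GI50, growth is halved. TGI denotes the concentration required for complete inhibition of growth.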

As for `CC(O)C(NC(=O)c1ccccc1)C(=O)N(Cc1ccccc1)Cc1ccccc1` (centres undefined), the TGI in the assay on MALME-3M melanoma, in the assay with 786-0 renal, in the assay with NCI-H23 lung, in the assay with SNB-19 CNS, with OVCAR-4 ovarian and in the assay on UACC-62 melanoma was more than 100 µM throughout. In addition, the TGI in the assay on TK-10 renal and in the assay with SF-268 CNS was more than 100 µM throughout.

For the molecule `O=C(CCN1CCCC1)Nc1ccc2c(NCCc3ccccc3)c3ccccc3nc2c1`, the GI50 in the assay on MALME-3M melanoma is 0.384 µM; in the assay on 786-0 renal, 0.819 µM; with NCI-H23 lung, 0.374 µM; in the assay on SNB-19 CNS, 0.385 µM; in the assay on OVCAR-4 ovarian, 0.326 µM; with UACC-62 melanoma it was 0.316 µM. Also, the results for the GI50 in the assay with TK-10 renal, in the assay on DU-145 prostate and in the assay with SF-268 CNS were 1.06 µM, 0.367 µM and 0.481 µM, respectively. The TGI with MALME-3M melanoma came to 1.45 µM; in the assay on 786-0 renal it was 2.2 µM; in the assay with NCI-H23 lung, 1.39 µM; in the assay on SNB-19 CNS, 1.61 µM; in the assay on OVCAR-4 ovarian it was 1.19 µM; with UACC-62 melanoma, 1.13 µM. Further, the results for the TGI with TK-10 renal, with DU-145 prostate and with SF-268 CNS were 2.96 µM, 1.36 µM and 1.91 µM, respectively.

On to `O=C1CCCC(O)=C1SC1=C(O)CCCC1=O`, for which the TGI with MALME-3M melanoma, with 786-0 renal, in the assay on NCI-H23 lung, in the assay with SNB-19 CNS, in the assay with OVCAR-4 ovarian and in the assay with UACC-62 melanoma was more than 100 µM each time. In addition, the TGI in the assay on TK-10 renal and with SF-268 CNS was more than 100 µM in each case.

Take `COc1ccccc1NC(=O)C1=C(C)NC(C)=C(C(=O)Nc2ccccc2OC)C1c1cccc2ccccc12`: the TGI with MALME-3M melanoma was more than 100 µM; with 786-0 renal, more than 100 µM; with NCI-H23 lung it was more than 100 µM; with SNB-19 CNS it was more than 100 µM; in the assay on OVCAR-4 ovarian, 41.5 µM; with UACC-62 melanoma, more than 100 µM. Also, the TGI with TK-10 renal and in the assay on SF-268 CNS was more than 100 µM each time.

Consider `N#Cc1cc([N+](=O)[O-])ccc1NC(=O)C(=O)C(C(=O)c1ccc2ccccc2c1)C1OCc2ccccc21` (centres undefined), for which the TGI was 26.8 µM in the assay on MALME-3M melanoma; 14.7 µM in the assay on 786-0 renal; 14.9 µM with NCI-H23 lung; 21.1 µM in the assay with SNB-19 CNS; more than 55.2 µM with OVCAR-4 ovarian; 36.4 µM with UACC-62 melanoma. Further, the TGI is 45.8 µM with TK-10 renal and 47.7 µM with SF-268 CNS.

With `O=C(Nc1ccc(Nc2ccncc2)cc1)c1ccc(Nc2ccnc3ccc([N+](=O)[O-])cc23)cc1[N+](=O)[O-]`, the GI50 in the assay with 786-0 renal was 6.03 µM; in the assay with NCI-H23 lung, 20.6 µM; in the assay with SNB-19 CNS, 5.61 µM; with OVCAR-4 ovarian it was 6.01 µM; in the assay with UACC-62 melanoma, 11.1 µM; in the assay on TK-10 renal, 27.9 µM. The GI50 is 5.55 µM in the assay with DU-145 prostate and 6.39 µM in the assay on T-47D breast. In addition, the TGI is 42.4 µM in the assay with 786-0 renal; more than 100 µM in the assay on NCI-H23 lung; more than 100 µM with SNB-19 CNS; more than 79.1 µM with OVCAR-4 ovarian; 58.8 µM in the assay with UACC-62 melanoma; more than 80.2 µM in the assay on TK-10 renal. In addition, the TGI in the assay on DU-145 prostate stood at 25.5 µM; in the assay with T-47D breast, 34.9 µM.

In the case of `CCCC(=O)c1ccc(=O)n(C)c1`, the TGI in the assay on MALME-3M melanoma, in the assay on 786-0 renal, in the assay on NCI-H23 lung, with SNB-19 CNS, in the assay on OVCAR-4 ovarian and in the assay on UACC-62 melanoma was more than 100 µM throughout. For the same molecule, the TGI with TK-10 renal and in the assay on SF-268 CNS was more than 100 µM each time.

Take `O=C1/C(=C/c2ccc(Cl)c(Cl)c2)CNC/C1=C\c1ccc(Cl)c(Cl)c1`: the TGI in the assay with MALME-3M melanoma was more than 66.5 µM; with 786-0 renal, 5.53 µM; in the assay on NCI-H23 lung, 26.9 µM; with SNB-19 CNS it was 32.6 µM; with OVCAR-4 ovarian it was 6.3 µM; in the assay with UACC-62 melanoma, 29.1 µM. In addition, the TGI in the assay on TK-10 renal was 80 µM; in the assay on DU-145 prostate it was more than 100 µM; with SF-268 CNS, 16.4 µM.

As for `COc1ccc(-c2nc(-c3ccccn3)c(-c3ccccn3)n2CC(C)C)cc1OC1CCCC1`, the GI50 in the assay on 786-0 renal was 48.7 µM; in the assay on NCI-H23 lung, 28.5 µM; in the assay with SNB-19 CNS it was 30.2 µM; in the assay with OVCAR-4 ovarian it was 32.3 µM; with DU-145 prostate it was 23.3 µM; in the assay with T-47D breast, 9.73 µM. Also, the GI50 with SF-268 CNS is 43.8 µM. For the same molecule, the TGI in the assay with 786-0 renal was more than 165 µM; with NCI-H23 lung it was more than 165 µM; in the assay on SNB-19 CNS, more than 165 µM; in the assay on OVCAR-4 ovarian, 126 µM; with DU-145 prostate, more than 165 µM; in the assay with T-47D breast it was more than 165 µM. This molecule also came in with a TGI in the assay with SF-268 CNS of more than 165 µM.

Consider `CC(=O)OCCOCNC(=S)N/N=C(\C)c1cccs1`, for which the TGI in the assay on MALME-3M melanoma, in the assay on 786-0 renal, with NCI-H23 lung, in the assay on SNB-19 CNS, with OVCAR-4 ovarian and in the assay on UACC-62 melanoma was more than 100 µM throughout. Further, the TGI in the assay on TK-10 renal and with SF-268 CNS was more than 100 µM throughout.

`CCC(C)c1cccc(C)c1NC(=O)C(=O)Cc1nc2ccccc2s1` (centres undefined): the TGI in the assay on MALME-3M melanoma, with 786-0 renal, in the assay with NCI-H23 lung, in the assay with SNB-19 CNS, in the assay with OVCAR-4 ovarian and in the assay on UACC-62 melanoma was more than 100 µM throughout. Also, the TGI in the assay on TK-10 renal and in the assay on SF-268 CNS was more than 100 µM in each case.

Turning to `CCOc1ccc(NCC2CC/C(=C\c3ccc(Cl)cc3)C2=O)cc1` (centres undefined), the TGI was more than 87.5 µM with MALME-3M melanoma; 25.8 µM in the assay on 786-0 renal; more than 73.4 µM in the assay on NCI-H23 lung; more than 100 µM in the assay on SNB-19 CNS; more than 75.3 µM with OVCAR-4 ovarian; more than 64.3 µM in the assay with UACC-62 melanoma. Further, the figures for the TGI in the assay on TK-10 renal and in the assay with SF-268 CNS were more than 65.6 µM and more than 86.7 µM, respectively.

Take `ClC1c2ccccc2C2(c3ccccc3)OOC1(c1ccccc1)O2` (centres undefined): the TGI stood at 7.14 µM with MALME-3M melanoma; 2.98 µM in the assay on 786-0 renal; 3.57 µM in the assay with NCI-H23 lung; 3.21 µM in the assay on SNB-19 CNS; 3.08 µM in the assay with OVCAR-4 ovarian; 3.66 µM in the assay on UACC-62 melanoma. Besides, the TGI in the assay with TK-10 renal stood at 4.4 µM; in the assay on SF-268 CNS, 4.19 µM.
